Reference: patent publication US20090118331A1, “Use of Lobeline Epimers in the Treatment of Central Nervous System Diseases, Pathologies, and Drug Abuse” (priority 2007, published 2009)
“And” between values parts separate entries of the source, which are not always exact repeats. Equal entries are not always repeated.

Legend:
clinical [1] = conditions: for AUC(0-∞) Ratio (Epi/Lob): individual human subjects
Excerpt: The pharmacokinetics of lobeline and lobeline epimer were examined in eight human subjects (Sub) after sublingual lobeline administration.

[2] = Lobeline epimerization in pH 7.4 phosphate buffer control; conditions: after 2 hours, with impurity
Method: In order to determine the tendency of lobeline to undergo epimerization in the HEPES buffer employed in the 25° C. [^3H]DTBZ binding study and the 37° C. VMAT2 uptake studies previously described, analogous solution epimerization experiments were conducted using the corresponding conditions for each individual assay. […] As this dynamic phenomenon occurs, the ratio of lobeline to lobeline epimer in solution naturally changes over time. Further, depending upon the solution conditions, the rate and extent of epimerization may vary; thus, a ratio of lobeline to epimer, if achieved, may occur at various time points. After 2 hours, the 25° C. […] The epimerization of lobeline in the 37° C.

[3] = Lobeline conversion to epimer in deionized water (HPLC); assay type: physicochemical
Method: Extensive in vitro studies on the epimerization of lobeline were conducted in a variety of aqueous media. […] The concentration of the lobeline solution (500 mL) was ca. 0.5 mg/mL, and 1.5 mL aliquot parts were removed in triplicate at each time point and analyzed by HPLC. Corresponding pH measurements were performed with a Coming Model 240 pH meter.

clinical [4] = conditions: human, in vivo
Method: Three consecutive doses of lobeline (either 30, 45 and 45 mg in the first study group, or 60, 60 and 60 mg in the second group) were administered to human volunteers at 0800, 1200 and 1600 over two full inpatient days. The pharmacokinetics of lobeline and epimer were then assessed in each subject. […] A crude index of accumulation (non-steady state) was obtained by dividing the sixth dose trough concentration by that observed for the fifth dose.

[5] = Lobeline conversion to epimer in the HEPES buffer system used at 25° C. in the [^3H]DTBZ binding study (HPLC); assay type: physicochemical; conditions: for Epimer %: [^3H]DTBZ binding buffer, 25° C.
Method: The initial dissolution of lobeline in water was followed by a 1:1 dilution of this stock solution in the appropriate HEPES buffer system, incubation at the prescribed temperature, and HPLC assay of each epimer and potential degradants over 2 hour incubation.
After 2 hours, the 25° C.

[6] = Lobeline conversion to epimer in the buffer system used at 37° C. in the VMAT2 uptake study (HPLC); assay type: physicochemical; conditions: for Epimer %: VMAT2 uptake buffer, 37° C.

## CN1[C@H](CC(=O)c2ccccc2)CCC[C@H]1C[C@H](O)c1ccccc1 (single isomer, unassigned; epimer 2) [Epimer, 2-[6S-(2S-hydroxy-2-phenyl-ethyl)-1-methyl-piperidin-2S-yl]-1-phenyl-ethanone]
Clinical [1]; human, in vivo, mean T1/2 values, human subjects, sublingual lobeline
  half-life: ~2 h
Clinical [1]; humans receiving sublingual lobeline 7.5, 15 and 30 mg
  ratio of epimer to lobeline in plasma (Cmax and area under the curve; x to 1): 8-10 and 8 to 10
Clinical [1]; sublingual lobeline 7.50 mg
  AUC(0-∞) Ratio (Epi/Lob): 8.23 and 7.66 and 4.64 and 8.82 and 4.97 and 10.29 and 6.66 and 7.29
Clinical [1]; sublingual lobeline 15.0 mg
  AUC(0-∞) Ratio (Epi/Lob): 10.60 and 7.17 and 8.44 and 9.79 and 6.74 and 12.94 and 6.63 and 10.97
Clinical [1]; sublingual lobeline 30.0 mg
  AUC(0-∞) Ratio (Epi/Lob): 11.77 and 6.33 and 8.63 and 10.30 and 6.07 and 11.84 and 9.02 and 11.44
[2]; pH 7.4 phosphate buffer control, same temperature as 25° C. binding buffer
  component content of solution: 35%
[2]; phosphate buffer control for the 37° C. VMAT2 uptake buffer
  component content of solution: 36%
[3]; Solution 1 (Lobeline in “fresh” DI Water), time 0, pH 6.02
  % Epimer (Mean ± SD): 0.83%
[3]; Solution 1 (“fresh” DI Water), 15 min, pH 6.03-6.24
  % Epimer (Mean ± SD): 0.83 ± 0.054%
[3]; Solution 1 (“fresh” DI Water), 30 min, pH 6.02-6.24
  % Epimer (Mean ± SD): 0.99 ± 0.164%
[3]; Solution 1 (“fresh” DI Water), 45 min, pH 6.13-6.37
  % Epimer (Mean ± SD): 0.95 ± 0.144%
[3]; Solution 1 (“fresh” DI Water), 1 h, pH 6.26-6.52
  % Epimer (Mean ± SD): 1.00 ± 0.196%
[3]; Solution 1 (“fresh” DI Water), 80 min, pH 6.19-6.50
  % Epimer (Mean ± SD): 1.46 ± 0.112%
[3]; Solution 1 (“fresh” DI Water), 100 min, pH 6.16-6.50
  % Epimer (Mean ± SD): 1.50 ± 0.139%
[3]; Solution 1 (“fresh” DI Water), 2 h, pH 5.63-5.88
  % Epimer (Mean ± SD): 1.58 ± 0.599%
[3]; Solution 2 (Lobeline in “8-h” DI Water), time 0, pH 7.87
  % Epimer (Mean ± SD): 1.03%
[3]; Solution 2 (“8-h” DI Water), 15 min, pH 7.78-8.21
  % Epimer (Mean ± SD): 0.66 ± 0.273%
[3]; Solution 2 (“8-h” DI Water), 30 min, pH 7.58-7.85
  % Epimer (Mean ± SD): 0.52 ± 0.214%
[3]; Solution 2 (“8-h” DI Water), 45 min, pH 7.66-7.68
  % Epimer (Mean ± SD): 0.65 ± 0.056%
[3]; Solution 2 (“8-h” DI Water), 1 h, pH 6.84-7.11
  % Epimer (Mean ± SD): 0.80 ± 0.087%
[3]; Solution 2 (“8-h” DI Water), 80 min, pH 6.53-6.79
  % Epimer (Mean ± SD): 0.90 ± 0.150%
[3]; Solution 2 (“8-h” DI Water), 100 min, pH 6.24-6.51
  % Epimer (Mean ± SD): 1.01 ± 0.207%
[3]; Solution 2 (“8-h” DI Water), 2 h, pH 6.21-6.49
  % Epimer (Mean ± SD): 1.22 ± 0.257%
[3]; in vitro with water at pH 7
  ratio of epimer to lobeline obtained in vitro: approximately 0.5
[3]; lobeline dissolved in deionized water, over a 2-h period at 25° C.
  change in epimer concentration: < 1%
Clinical [4]
  half-life: 3.47 h
  time at which geometric mean plasma concentration peaked: 1.38 h
[5]; HEPES [^3H]DTBZ binding buffer, after 2 hours at 25° C.
  final component concentration (as a function of the area under the curve): 17%
[5]; T0, sample age 0:01
  Epimer %: 1.54%
[5]; T5, sample age 0:06
  Epimer %: 2.16%
[5]; T10, sample age 0:10
  Epimer %: 3.34%
[5]; T15, sample age 0:15
  Epimer %: 4.55%
[5]; T20, sample age 0:20
  Epimer %: 5.27%
[5]; T25, sample age 0:25
  Epimer %: 5.91%
[5]; T30, sample age 0:31
  Epimer %: 7.18%
[5]; T35, sample age 0:35
  Epimer %: 7.30%
[5]; T40, sample age 0:40
  Epimer %: 8.66%
[5]; T45, sample age 0:45
  Epimer %: 9.31%
[5]; T50, sample age 0:50
  Epimer %: 9.94%
[5]; T55, sample age 0:55
  Epimer %: 10.2%
[5]; T60, sample age 1:00
  Epimer %: 10.9%
[5]; T70, sample age 1:10
  Epimer %: 11.9%
[5]; T80, sample age 1:20
  Epimer %: 13.1%
[5]; T90, sample age 1:31
  Epimer %: 14.1%
[5]; T100, sample age 1:40
  Epimer %: 15.2%
[5]; T110, sample age 1:50
  Epimer %: 16.1%
[5]; T120, sample age 2:01
  Epimer %: 17.0%
[6]; 37° C. uptake buffer with ATP-Mg2+ cofactor reduced from 2 mM to 0.4 mM, after 2 hours, with impurity
  component content of solution: 33%
[6]; VMAT2 uptake buffer (HEPES), 2 hour incubation at 37° C.
  final component concentration (as a function of the area under the curve): 30%
[6]; T0, sample age 0:01
  Epimer %: 1.76%
[6]; T5, sample age 0:05
  Epimer %: 3.34%
[6]; T10, sample age 0:10
  Epimer %: 5.47%
[6]; T15, sample age 0:15
  Epimer %: 8.62%
[6]; T25, sample age 0:25
  Epimer %: 13.2%
[6]; T30, sample age 0:30
  Epimer %: 14.9%
[6]; T35, sample age 0:35
  Epimer %: 16.2%
[6]; T40, sample age 0:40
  Epimer %: 17.7%
[6]; T45, sample age 0:45
  Epimer %: 18.9%
[6]; T50, sample age 0:50
  Epimer %: 20.1%
[6]; T55, sample age 0:55
  Epimer %: 21.0%
[6]; T60, sample age 1:00
  Epimer %: 22.1%
[6]; T70, sample age 1:10
  Epimer %: 24.3%
[6]; T80, sample age 1:20
  Epimer %: 26.1%
[6]; T90, sample age 1:31
  Epimer %: 26.9%
[6]; T100, sample age 1:40
  Epimer %: 28.0%
[6]; T110, sample age 1:50
  Epimer %: 29.2%
[6]; T120, sample age 2:00
  Epimer %: 30.3%
